Data from patent publication US6376478B1, “Pharmaceutical compositions and methods for treating anxiety, anxiety disorders and memory impairment using naaladase inhibitors” (Guilford Pharmaceuticals Inc., priority 1999, dated 2002).
Where “and” joins values, the source holds several entries; their conditions need not be identical. Equal entries are not always repeated.

Assays:
[1] = target: NAALADase (Homo sapiens, UniProt Q04609); test: In vitro inhibition of NAALADase activity; format: biochemical
Sequence of NAALADase (Q04609 whole entry): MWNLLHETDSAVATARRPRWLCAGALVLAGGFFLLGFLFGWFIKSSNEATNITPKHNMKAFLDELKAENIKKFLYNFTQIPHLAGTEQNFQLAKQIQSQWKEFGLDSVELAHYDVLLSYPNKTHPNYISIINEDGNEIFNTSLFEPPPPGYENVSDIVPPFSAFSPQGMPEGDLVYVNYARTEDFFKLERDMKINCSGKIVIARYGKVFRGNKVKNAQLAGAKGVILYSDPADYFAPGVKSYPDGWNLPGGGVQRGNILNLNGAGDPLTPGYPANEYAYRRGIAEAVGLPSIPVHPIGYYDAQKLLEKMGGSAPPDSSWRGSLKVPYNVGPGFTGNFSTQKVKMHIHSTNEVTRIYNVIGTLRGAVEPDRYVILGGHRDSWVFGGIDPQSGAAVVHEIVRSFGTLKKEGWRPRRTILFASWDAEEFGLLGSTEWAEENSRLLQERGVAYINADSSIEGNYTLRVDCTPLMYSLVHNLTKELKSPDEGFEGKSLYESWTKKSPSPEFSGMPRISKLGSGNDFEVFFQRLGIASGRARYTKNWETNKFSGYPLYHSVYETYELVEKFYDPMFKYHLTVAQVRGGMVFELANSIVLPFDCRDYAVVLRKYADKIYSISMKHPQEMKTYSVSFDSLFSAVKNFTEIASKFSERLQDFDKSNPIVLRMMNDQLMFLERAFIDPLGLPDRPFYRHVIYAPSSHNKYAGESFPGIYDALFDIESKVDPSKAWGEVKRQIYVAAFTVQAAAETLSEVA

[2] = Passive avoidance anxiolytic model (shuttlebox, latency to cross); format: in vivo; settings: for Latency to Cross, Mean / Latency to Cross, individual animals: Table II
Description: The passive avoidance test consists of an acquisition and a retention trial. On the day prior to dosing, the animal is placed into the shuttlebox and allowed to acclimate. A conditioned stimulus (light) is presented for approximately 100 seconds. When the animal crosses to the dark compartment, a mild (0.5 mA) footshock is presented until the animal returns to the lighted compartment or for approximately 10 seconds. Animals failing to cross during acquisition trial is randomly replaced. The day following acquisition, animals are administered test article, saline or flurazepam 10 minutes prior to being placed in the shuttlebox and tested for retention as described above. Latency to cross (in seconds) is recorded.

SMILES: O=C(O)CCC(CCS)C(=O)O (stereo not drawn) [Compound 1, 2-(2-sulfanylethyl)pentanedioic acid]
- Ki [1]: 510 nM
- anxiolytic properties in passive avoidance ([2]; Example 14): exhibit anxiolytic properties
- performance compared with flurazepam in passive avoidance ([2]; Example 14, in some experiments): performed better than the known anxiolytic agent, flurazepam
- Latency to Cross, Mean ([2]; Compound 1 1 mg/kg PO): 34.8 s
- Latency to Cross, individual animals ([2]; Compound 1 1 mg/kg PO, 1 mg/kg): 5.9 seconds and 15.8 seconds and 28.4 seconds and 30.3 seconds and 100.0 seconds (3×) and 12.3 seconds and 27.9 seconds and 23.5 seconds and 3.9 seconds and 13.1 seconds and 0.2 seconds and 41.3 seconds and 20.1 seconds
- Latency to Cross, Mean ([2]; Compound 1 10 mg/kg PO): 23.6 s
- Latency to Cross, individual animals ([2]; Compound 1 10 mg/kg PO, 10 mg/kg): 1.8 s and 28.5 s and 64.1 s and 3.2 s and 14.7 s and 10.3 s and 3.3 s and 24.6 s and 9.4 s and 100.0 s and 22.7 s and 6.6 s and 14.0 s and 38.8 s and 12.1 s
- Latency to Cross, Mean ([2]; Compound 1 100 mg/kg PO): 18.0 s
- Latency to Cross, individual animals ([2]; Compound 1 100 mg/kg PO, 100 mg/kg): 15.0 s and 19.2 s and 5.6 s and 19.3 s and 6.2 s and 55.7 s and 25.5 s and 21.5 s and 6.6 s and 15.1 s and 8.4 s and 17.4 s and 0.5 s and 0.7 s and 52.8 s
